The source made the active and inactive calls. How the calls were made is not given here.
System: M. tuberculosis H37Rv growth inhibition with meropenem
Assay: dose response, H37Rv, with and without meropenem (AID 434987);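 further: growth over 7 days at 37 °C before Alamar Blue read on day 9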
[1] = M. tuberculosis H37Rv growth inhibition, measured here: IC50 without meropenem
[2] = M. tuberculosis H37Rv growth inhibition, measured here: IC90 without meropenem
[3] = measured here: IC90 with meropenem

Structure (SMILES)	IC50	IC50 [1]	IC90 [2]	IC90 [3]
CCOc1cccc(=O)c2c(C)n(Cc3ccccc3)c(C)c12	> 100 µM (inactive)	> 100 µM	> 100 µM	> 100 µM
CC(C)(C)[C@@H]1C=C(C(=O)Nc2ccccc2)O[C@H](OCc2ccc(CO)cc2)C1	75 µM (inactive)	93.1 µM	> 100 µM	> 100 µM
O=C(NCc1nc2ncc(Br)cc2[nH]1)c1ccccc1	49.2 µM (inactive)	94 µM	> 100 µM	54.9 µM
O=C(c1cccc(C(=O)N2CCN(c3ccc(F)cc3)CC2)c1)N1CCN(c2ccc(F)cc2)CC1	93.2 µM (inactive)	95.2 µM	> 100 µM	> 100 µM
CCc1ccccc1NC(=O)CNC(=O)c1cc(C2CC2)nn1-c1ccccc1	> 100 µM (inactive)	> 100 µM	> 100 µM	> 100 µM
O=S1(=O)CCO[C@H]2Cc3ccccc3[C@H]2N1Cc1ccc(Cl)cc1	> 100 µM (inactive)	> 100 µM	> 100 µM	> 100 µM
c1ccc2c(c1)Cn1nc(Cc3nc4c(s3)CCCC4)nc1-2	47.5 µM (inactive)	79.1 µM	> 100 µM	53 µM
O=C(COc1ccccc1)NNC(=O)c1cc2ccccc2oc1=O	15.3 µM	> 100 µM	> 100 µM	> 100 µM
Cc1cccc(-n2nc([N+](=O)[O-])c(=NC3CCN(Cc4ccccc4)CC3)n2O)c1	25.9 µM (inactive)	45.8 µM	49 µM	30.5 µM
Cc1cc(N2CCN(c3ccccc3)CC2)nc2ccccc12	> 100 µM (inactive)	> 100 µM	> 100 µM	> 100 µM
COc1ccc(/C=N/Nc2nc(-c3ccc(C)cc3)c(NC(C)=O)s2)cc1OC	> 100 µM (inactive)	> 100 µM	> 100 µM	> 100 µM
COc1ccc(-c2cc(-c3ccc(OC)cc3)nc(-c3ccc4c(c3)NC(=O)CO4)c2)cc1	> 100 µM (inactive)	> 100 µM	> 100 µM	> 100 µM
Cn1nnnc1Sc1ncnc2scc(-c3ccc(C(F)(F)F)cc3)c12	6.75 µM (inactive)	14.3 µM	24.4 µM	15 µM
CCOc1ccc(NC(=S)Nc2cccnc2)cc1	89.5 µM (inactive)	> 100 µM	> 100 µM	> 100 µM
O=C(COC(=O)c1ccc([N+](=O)[O-])s1)NCc1ccc(F)cc1	37.9 µM (inactive)	56.6 µM	> 100 µM	> 100 µM
NC(=S)N/N=C/c1ccc([N+](=O)[O-])cc1	31.7 µM	> 100 µM	> 100 µM	> 100 µM
Cc1ccc(C(=O)Nc2c(C)cc(C)c3cccnc23)cc1	2.39 µM	10.3 µM	> 50 µM	10.5 µM
Cc1cccc(NC(=O)c2nc[nH]c2C(=O)N[C@@H](CC(C)C)C(=O)OCc2ccccc2)c1	9.43 µM	26.1 µM	51.8 µM	> 100 µM
COc1ccc(OC)c(Nc2nc(-c3cccs3)cs2)c1	42.8 µM (inactive)	49 µM	> 100 µM	> 100 µM
CCOC(=O)[C@H]1[C@H]2COc3ccc(Br)cc3[C@@H]2N2C(=O)c3cc(OC)c(OC)cc3NC(=O)[C@@]12C	> 50 µM (inactive)	80.9 µM	> 100 µM	> 50 µM

Structure (SMILES)	IC50	IC50 [1]	IC90 [2]	IC90 [3]
CCOC(=O)c1c(C)nc2sc(C(=O)Nc3ccccc3)c(N)c2c1-c1ccc(OC)cc1	> 100 µM (inactive)	> 100 µM	> 100 µM	> 100 µM
COc1ccc2c(c1)c(CC(=O)Nc1ccc(C)cc1)c(C)n2C(=O)c1ccc(Cl)cc1	> 100 µM (inactive)	> 100 µM	> 100 µM	> 100 µM
COc1ccc2nc(NC(=O)c3ccc(Br)s3)sc2c1	> 100 µM (inactive)	> 100 µM	> 100 µM	> 100 µM
CN(C)C(=O)c1ccc(-n2nc(C(F)(F)F)c3c2CCCC3)cc1	> 100 µM (inactive)	> 100 µM	> 100 µM	> 100 µM
CCOc1nnnc2c1sc1nc(N3CCOCC3)c3c(c12)CCCC3	> 100 µM (inactive)	> 100 µM	> 100 µM	> 100 µM
C/C(=N/NC(=O)c1ccccn1)c1ccncc1	9.52 µM	31.8 µM	> 100 µM	23.1 µM
CCCCN(C)Cc1cc(=O)oc2cc3c(cc12)CCCC3	64.3 µM (inactive)	80.1 µM	> 100 µM	82.2 µM
CCN(CC)C(=O)CSc1nnc2nnc3cc(OC)ccc3n12	12 µM (inactive)	27.7 µM	51.7 µM	13.4 µM
CCOC(=O)c1cc(C(=O)OCC)cc(-n2cc(O)c(C(=O)OCC)n2)c1	> 100 µM (inactive)	> 100 µM	> 100 µM	> 100 µM
CC(C)Oc1ccc(N2CC(C(=O)Nc3ccccc3F)CC2=O)cc1 (configuration not stated)	56.8 µM (inactive)	> 100 µM	> 100 µM	> 100 µM
Cc1[nH]n(-c2ccccc2)c(=O)c1/C=N/NC(=O)c1cccc([N+](=O)[O-])c1	5.43 µM	34.2 µM	55.1 µM	70.7 µM
O=c1oc(CCCO)cc2ccc(C#Cc3ccsc3)cc12	> 100 µM (inactive)	> 100 µM	> 100 µM	> 100 µM
Cc1ccccc1OCC(=O)Nc1ccccc1-c1ccccc1	6.04 µM	> 100 µM	> 100 µM	> 100 µM
O=C(COc1ccccc1[N+](=O)[O-])N(Cc1cccc(Br)c1)C1CCS(=O)(=O)C1 (configuration not stated)	> 100 µM (inactive)	> 100 µM	> 100 µM	> 100 µM
CCN(Cc1ccncc1)C(=O)C(CO)c1ccccc1 (configuration not stated)	> 100 µM (inactive)	> 100 µM	> 100 µM	> 100 µM
CC1CCc2nc(NC(=O)C3COc4ccccc4O3)sc2C1 (configuration not stated)	26.2 µM (inactive)	51.9 µM	> 100 µM	> 100 µM
Cc1cc(C)cc(OCC(=O)NNC(=O)c2ccccn2)c1	1.66 µM	10.9 µM	22.3 µM	16 µM
N#Cc1cc2c(nc1SCC(=O)Nc1sc3c(c1C#N)CCC3)CCCC2	> 100 µM (inactive)	> 100 µM	> 100 µM	> 100 µM
COc1cc(C(=O)Oc2ccccc2/C=N/NC(=O)c2ccc(C)c(Cl)c2)cc(OC)c1OC	1.96 µM	> 100 µM	> 100 µM	> 3.13 µM
N#Cc1ccc(NC(=O)COC(=O)C2=COCCO2)cc1	> 100 µM (inactive)	> 100 µM	> 100 µM	> 100 µM

Structure (SMILES)	IC50	IC50 [1]	IC90 [2]	IC90 [3]
C=CCSc1nnc(-c2cc3c(-c4ccccc4)nn(C)c3s2)n1C	26 µM (inactive)	52.4 µM	92 µM	> 100 µM
O=C(Oc1c(-c2ccccc2Cl)oc2ccccc2c1=O)c1ccc(Cl)cc1	11 µM	47.5 µM	> 100 µM	> 50 µM
COC(=O)c1c(NC(=O)C2c3ccccc3Oc3ccccc32)sc(C)c1C	> 100 µM (inactive)	> 100 µM	> 100 µM	> 100 µM
COc1ccc2cc(C3=CCCCC3)ncc2c1	74.8 µM (inactive)	> 100 µM	> 100 µM	> 100 µM
CCn1c(SCc2nc(-c3cccs3)no2)nnc1-c1c[nH]c2ccccc12	> 100 µM (inactive)	> 100 µM	> 100 µM	> 100 µM
O=C(NCCC1=CCCCC1)NC1CCCCC1	17.8 µM	> 100 µM	> 100 µM	> 50 µM
CCOc1cc(/C=N/Nc2nc(-c3cccs3)c(NC(C)=O)s2)ccc1O	42.4 µM (inactive)	> 100 µM	> 100 µM	> 100 µM
Cc1nn(-c2ccccc2)cc1/C=N/NC(N)=S	3.7 µM	> 100 µM	> 100 µM	> 100 µM
CCCCN1C(=O)c2ccc(C(=O)Nc3cccc(C)c3C)cc2C1=O	> 100 µM (inactive)	> 100 µM	> 100 µM	> 100 µM
CCSc1nnc(NC(=O)CSc2nccn2-c2cccc(C)c2)s1	> 100 µM (inactive)	> 100 µM	> 100 µM	> 100 µM
O=C(O/N=C\c1ccc(N2CCCCC2)c([N+](=O)[O-])c1)c1c(F)cccc1F	> 100 µM (inactive)	> 100 µM	> 100 µM	> 100 µM
COc1cc(/C=N/NC(=S)Nc2cccc(S(=O)(=O)N(C)C)c2)cc(OC)c1O	> 100 µM (inactive)	> 100 µM	> 100 µM	> 100 µM
S=C(Nc1ccccc1Cl)N1CCCC(c2ccccc2)=N1	> 100 µM (inactive)	68.9 µM	87.8 µM	> 100 µM
CCN(CC)C(=O)COc1ccc(-c2nnc(Nc3ccc(OC)c(C(=O)NC)c3)c3ccccc23)cc1	68.8 µM (inactive)	82.3 µM	> 100 µM	> 100 µM
COCCOC(=O)c1c(C)oc2ccc(OCc3cc(C(=O)OC)oc3C)cc12	> 100 µM (inactive)	> 100 µM	> 100 µM	> 100 µM
CCCCCCCN(C(=O)CCl)c1ccccc1C	4.49 µM	11.8 µM	37.3 µM	35.2 µM
COC(=O)c1ccc(/C=N/Nc2nc(-c3ccc(C)cc3)cs2)cc1	10.9 µM	> 100 µM	> 100 µM	> 100 µM
Cn1c(=S)[nH]c2sc3c(c2c1=O)CCC(C(C)(C)C)C3 (configuration not stated)	38 µM (inactive)	79 µM	> 100 µM	> 100 µM

— PubChem BioAssay AID434987 (Southern Research Specialized Biocontainment Screening …, 2010)
